# In ChEMBL document CHEMBL3132769, “Fragment growing to retain or alter the selectivity of anchored kinase hinge-binding fragments” (Medchemcomm, 2014):
# Tests used:
# [1] = target: Tyrosine-protein kinase ABL1 (Homo sapiens) (UniProt P00519); experiment: Inhibition of human full-length ABL expressed in baculovirus assessed as substrate phosphorylation using fluorescence-labelled peptides as substrate at 0.2 uM after 90 mins by microfluidic peptide phosphorylation assay
# [2] = target: T1, Serine/threonine-protein kinase Chk1 (Homo sapiens) (UniProt O14757); experiment: Inhibition of human full length CHK1 expressed in baculovirus assessed as substrate phosphorylation using fluorescence-labelled peptides as substrate at 420 uM after 90 mins by microfluidic peptide phosphorylation assay
# T1 sequence (whole entry): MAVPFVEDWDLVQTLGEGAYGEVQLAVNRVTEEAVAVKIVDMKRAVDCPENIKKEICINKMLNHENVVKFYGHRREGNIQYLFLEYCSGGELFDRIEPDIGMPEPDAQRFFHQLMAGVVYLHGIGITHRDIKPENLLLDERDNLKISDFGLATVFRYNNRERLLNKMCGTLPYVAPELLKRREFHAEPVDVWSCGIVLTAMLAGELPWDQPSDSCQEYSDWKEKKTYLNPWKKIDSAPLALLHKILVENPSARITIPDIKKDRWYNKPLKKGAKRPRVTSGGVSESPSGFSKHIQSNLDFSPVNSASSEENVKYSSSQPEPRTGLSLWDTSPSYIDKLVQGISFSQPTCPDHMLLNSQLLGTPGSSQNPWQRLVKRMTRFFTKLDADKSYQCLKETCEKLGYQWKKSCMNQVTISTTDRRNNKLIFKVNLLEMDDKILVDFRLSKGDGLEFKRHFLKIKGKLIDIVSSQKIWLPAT
# [3] = target: Aurora kinase B (Homo sapiens) (UniProt Q96GD4); experiment: Inhibition of human full length AurB expressed in baculovirus assessed as substrate phosphorylation using fluorescence-labelled peptides as substrate at 9 uM after 90 mins by microfluidic peptide phosphorylation assay
# Chain of Aurora kinase B (Homo sapiens) (Q96GD4 whole entry): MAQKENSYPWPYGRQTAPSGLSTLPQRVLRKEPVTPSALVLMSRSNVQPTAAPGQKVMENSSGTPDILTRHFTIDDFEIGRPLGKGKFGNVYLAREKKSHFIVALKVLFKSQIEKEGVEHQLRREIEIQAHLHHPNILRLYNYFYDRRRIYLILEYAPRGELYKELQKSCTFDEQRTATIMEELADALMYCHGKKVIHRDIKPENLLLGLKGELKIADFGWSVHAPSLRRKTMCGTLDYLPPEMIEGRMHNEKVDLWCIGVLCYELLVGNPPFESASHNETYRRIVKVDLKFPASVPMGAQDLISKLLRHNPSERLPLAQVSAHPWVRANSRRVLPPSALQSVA
# [4] = target: Dual specificity tyrosine-phosphorylation-regulated kinase 1A (Rattus norvegicus) (UniProt Q63470); experiment: Inhibition of rat full length DYRK1a expressed in Escherichia coli cell assessed as substrate phosphorylation using fluorescence-labelled peptides as substrate at 9 uM after 90 mins by microfluidic peptide phosphorylation assay
# [5] = target: Ribosomal protein S6 kinase alpha-2 (Homo sapiens) (UniProt Q15349); experiment: Inhibition of human full length RSK3 expressed in baculovirus assessed as substrate phosphorylation using fluorescence-labelled peptides as substrate at 9 uM after 90 mins by microfluidic peptide phosphorylation assay
# Chain of Ribosomal protein S6 kinase alpha-2 (Homo sapiens) (Q15349 whole entry, the tested form may be a part): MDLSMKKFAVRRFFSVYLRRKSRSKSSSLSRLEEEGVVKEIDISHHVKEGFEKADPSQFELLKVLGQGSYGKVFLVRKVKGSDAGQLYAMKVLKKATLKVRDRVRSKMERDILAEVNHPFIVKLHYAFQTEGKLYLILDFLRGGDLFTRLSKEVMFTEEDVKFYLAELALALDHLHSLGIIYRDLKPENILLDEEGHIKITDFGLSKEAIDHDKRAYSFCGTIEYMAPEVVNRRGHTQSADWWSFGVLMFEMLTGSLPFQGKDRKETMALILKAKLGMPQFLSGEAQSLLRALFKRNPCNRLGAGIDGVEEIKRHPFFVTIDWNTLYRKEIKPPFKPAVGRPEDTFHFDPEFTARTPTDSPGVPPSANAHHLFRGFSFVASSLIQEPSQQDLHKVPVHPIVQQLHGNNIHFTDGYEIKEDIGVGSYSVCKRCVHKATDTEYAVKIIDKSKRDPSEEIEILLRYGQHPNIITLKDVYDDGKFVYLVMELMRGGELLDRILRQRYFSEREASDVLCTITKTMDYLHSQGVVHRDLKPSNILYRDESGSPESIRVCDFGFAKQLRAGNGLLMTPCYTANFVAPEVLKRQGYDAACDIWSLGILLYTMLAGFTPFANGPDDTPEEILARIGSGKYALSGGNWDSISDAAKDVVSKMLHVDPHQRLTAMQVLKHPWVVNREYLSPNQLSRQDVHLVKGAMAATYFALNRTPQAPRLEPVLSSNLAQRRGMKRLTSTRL
# [6] = target: Fibroblast growth factor receptor 4 (Homo sapiens) (UniProt P22455); experiment: Inhibition of human FGFR4 catalytic domain expressed in baculovirus assessed as substrate phosphorylation using fluorescence-labelled peptides as substrate at 9 uM after 90 mins by microfluidic peptide phosphorylation assay
# [7] = target: T2, Protein kinase C zeta type (Homo sapiens) (UniProt Q05513); experiment: Inhibition of human full length PKC zeta expressed in baculovirus assessed as substrate phosphorylation using fluorescence-labelled peptides as substrate at 2 uM after 90 mins by microfluidic peptide phosphorylation assay
# T2 sequence (whole entry): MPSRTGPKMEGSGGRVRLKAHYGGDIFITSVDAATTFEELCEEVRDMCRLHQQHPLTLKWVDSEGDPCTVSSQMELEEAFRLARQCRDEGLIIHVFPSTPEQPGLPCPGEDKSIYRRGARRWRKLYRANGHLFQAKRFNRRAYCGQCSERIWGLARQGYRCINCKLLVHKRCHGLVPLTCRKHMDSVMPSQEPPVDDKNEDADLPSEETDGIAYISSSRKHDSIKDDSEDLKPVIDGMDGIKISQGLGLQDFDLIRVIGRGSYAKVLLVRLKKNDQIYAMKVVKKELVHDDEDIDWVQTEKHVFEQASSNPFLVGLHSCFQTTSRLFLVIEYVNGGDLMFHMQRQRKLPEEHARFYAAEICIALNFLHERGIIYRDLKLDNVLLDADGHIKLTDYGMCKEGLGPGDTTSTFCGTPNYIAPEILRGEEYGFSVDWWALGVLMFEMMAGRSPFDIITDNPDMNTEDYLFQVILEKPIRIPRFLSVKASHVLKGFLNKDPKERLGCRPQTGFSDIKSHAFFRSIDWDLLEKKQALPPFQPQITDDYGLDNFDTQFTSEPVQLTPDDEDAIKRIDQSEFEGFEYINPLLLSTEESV
# [8] = target: Calcium/calmodulin-dependent protein kinase type II subunit beta (Homo sapiens) (UniProt Q13554); conditions: 0.1 uM
# Chain of Calcium/calmodulin-dependent protein kinase type II subunit beta (Homo sapiens) (Q13554 whole entry, the tested form may be a part): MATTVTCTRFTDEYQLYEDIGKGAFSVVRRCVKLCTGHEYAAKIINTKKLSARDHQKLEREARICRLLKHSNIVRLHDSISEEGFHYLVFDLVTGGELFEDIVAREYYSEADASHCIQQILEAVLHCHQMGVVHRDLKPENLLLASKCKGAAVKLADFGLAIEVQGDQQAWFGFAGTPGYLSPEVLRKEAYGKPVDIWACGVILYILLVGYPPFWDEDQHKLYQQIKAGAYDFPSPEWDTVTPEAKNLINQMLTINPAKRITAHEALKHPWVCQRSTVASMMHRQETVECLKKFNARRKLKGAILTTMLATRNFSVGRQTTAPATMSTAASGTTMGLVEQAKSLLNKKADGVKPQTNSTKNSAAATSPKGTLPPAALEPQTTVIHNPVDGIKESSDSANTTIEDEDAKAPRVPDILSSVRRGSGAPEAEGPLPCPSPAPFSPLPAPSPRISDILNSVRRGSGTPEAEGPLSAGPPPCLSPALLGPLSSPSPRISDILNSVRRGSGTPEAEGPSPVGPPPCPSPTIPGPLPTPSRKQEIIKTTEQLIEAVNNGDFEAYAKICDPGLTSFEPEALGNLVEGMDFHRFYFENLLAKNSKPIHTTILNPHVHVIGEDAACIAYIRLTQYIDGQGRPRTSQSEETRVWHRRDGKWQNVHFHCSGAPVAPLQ
# Description: Inhibition of human CAMK2 beta catalytic domain expressed in baculovirus assessed as substrate phosphorylation using fluorescence-labelled peptides as substrate at 0.1 uM after 90 mins by microfluidic peptide phosphorylation assay
# [9] = target: Tyrosine-protein kinase ABL2 (Homo sapiens) (UniProt P42684); experiment: Inhibition of human truncated Arg expressed in baculovirus assessed as substrate phosphorylation using fluorescence-labelled peptides as substrate at 0.1 uM after 90 mins by microfluidic peptide phosphorylation assay
# Chain of Tyrosine-protein kinase ABL2 (Homo sapiens) (P42684 whole entry, the tested form may be a part): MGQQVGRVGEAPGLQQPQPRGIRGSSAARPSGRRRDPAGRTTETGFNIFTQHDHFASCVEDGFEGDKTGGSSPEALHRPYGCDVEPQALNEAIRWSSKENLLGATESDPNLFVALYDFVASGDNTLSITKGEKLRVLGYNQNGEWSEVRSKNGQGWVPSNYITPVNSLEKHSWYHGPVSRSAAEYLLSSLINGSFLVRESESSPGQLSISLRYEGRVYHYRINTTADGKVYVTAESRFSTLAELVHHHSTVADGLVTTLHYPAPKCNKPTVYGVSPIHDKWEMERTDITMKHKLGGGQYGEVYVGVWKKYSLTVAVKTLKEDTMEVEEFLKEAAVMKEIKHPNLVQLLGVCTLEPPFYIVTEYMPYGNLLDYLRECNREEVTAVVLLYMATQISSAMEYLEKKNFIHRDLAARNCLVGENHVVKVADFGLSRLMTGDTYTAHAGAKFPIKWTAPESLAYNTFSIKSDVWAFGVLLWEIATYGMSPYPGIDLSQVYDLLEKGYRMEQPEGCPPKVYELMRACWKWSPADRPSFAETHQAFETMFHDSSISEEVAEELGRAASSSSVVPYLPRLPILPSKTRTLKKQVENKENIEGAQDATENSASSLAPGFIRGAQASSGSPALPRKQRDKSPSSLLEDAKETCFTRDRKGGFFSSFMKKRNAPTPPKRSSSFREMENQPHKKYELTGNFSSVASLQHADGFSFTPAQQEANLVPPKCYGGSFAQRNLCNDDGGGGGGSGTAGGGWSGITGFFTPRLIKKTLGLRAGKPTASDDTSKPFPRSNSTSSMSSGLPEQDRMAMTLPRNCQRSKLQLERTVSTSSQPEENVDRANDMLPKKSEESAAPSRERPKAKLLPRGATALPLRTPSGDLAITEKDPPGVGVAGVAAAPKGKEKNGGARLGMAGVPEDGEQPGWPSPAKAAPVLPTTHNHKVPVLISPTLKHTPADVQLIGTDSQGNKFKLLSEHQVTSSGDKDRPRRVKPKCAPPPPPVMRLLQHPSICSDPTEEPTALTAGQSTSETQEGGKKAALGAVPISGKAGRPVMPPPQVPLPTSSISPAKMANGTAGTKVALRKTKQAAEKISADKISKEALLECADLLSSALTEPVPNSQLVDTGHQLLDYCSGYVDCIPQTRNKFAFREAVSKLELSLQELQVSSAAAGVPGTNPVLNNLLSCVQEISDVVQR
# [10] = species on record: Homo sapiens; conditions: 0.1 uM
# Description: Inhibition of human full length PKA expressed in baculovirus assessed as substrate phosphorylation using fluorescence-labelled peptides as substrate at 0.1 uM after 90 mins by microfluidic peptide phosphorylation assay
# [11] = target: Proto-oncogene tyrosine-protein kinase Src (Homo sapiens) (UniProt P12931); experiment: Inhibition of human full length SRC expressed in baculovirus assessed as substrate phosphorylation using fluorescence-labelled peptides as substrate at […] after 90 mins by microfluidic peptide phosphorylation assay
# Chain of Proto-oncogene tyrosine-protein kinase Src (Homo sapiens) (P12931 2-536 limits assumed): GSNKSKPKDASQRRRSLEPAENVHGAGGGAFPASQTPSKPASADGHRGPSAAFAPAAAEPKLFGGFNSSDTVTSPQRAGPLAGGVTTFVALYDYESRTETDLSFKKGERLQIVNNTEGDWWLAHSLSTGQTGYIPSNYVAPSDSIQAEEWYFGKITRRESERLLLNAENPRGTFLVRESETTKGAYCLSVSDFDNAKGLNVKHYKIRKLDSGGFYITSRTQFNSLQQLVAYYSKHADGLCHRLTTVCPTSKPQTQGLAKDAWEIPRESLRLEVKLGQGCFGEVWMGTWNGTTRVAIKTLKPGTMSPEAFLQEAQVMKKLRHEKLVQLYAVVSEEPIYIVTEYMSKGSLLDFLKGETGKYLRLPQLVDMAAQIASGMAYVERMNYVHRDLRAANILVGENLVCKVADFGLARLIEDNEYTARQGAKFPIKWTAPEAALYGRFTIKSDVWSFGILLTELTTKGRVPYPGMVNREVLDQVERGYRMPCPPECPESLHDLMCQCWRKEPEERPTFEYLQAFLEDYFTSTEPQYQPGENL
# [12] = target: T3, Mitogen-activated protein kinase 13 (Homo sapiens) (UniProt O15264); experiment: Inhibition of human full length p38 delta expressed in Escherichia coli cell assessed as substrate phosphorylation using fluorescence-labelled peptides as substrate at 0.06 uM after 90 mins by microfluidic peptide phosphorylation assay
# T3 sequence (whole entry): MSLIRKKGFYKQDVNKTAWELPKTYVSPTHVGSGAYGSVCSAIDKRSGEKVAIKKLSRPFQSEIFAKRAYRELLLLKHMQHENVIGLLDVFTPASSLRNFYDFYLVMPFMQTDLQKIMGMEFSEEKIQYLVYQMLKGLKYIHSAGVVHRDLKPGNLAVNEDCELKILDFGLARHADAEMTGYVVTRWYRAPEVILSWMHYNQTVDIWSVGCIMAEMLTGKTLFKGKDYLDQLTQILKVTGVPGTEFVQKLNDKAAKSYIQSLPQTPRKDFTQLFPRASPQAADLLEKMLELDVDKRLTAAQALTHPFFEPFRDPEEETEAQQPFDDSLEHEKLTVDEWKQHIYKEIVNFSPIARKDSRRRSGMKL
# [13] = target: Protein kinase C gamma type (Homo sapiens) (UniProt P05129); experiment: Inhibition of human truncated PKC gamma expressed in baculovirus assessed as substrate phosphorylation using fluorescence-labelled peptides as substrate at 8 uM after 90 mins by microfluidic peptide phosphorylation assay
# [14] = species on record: Homo sapiens; experiment: Inhibition of human full length PKA expressed in baculovirus assessed as substrate phosphorylation using fluorescence-labelled peptides as substrate at 70 uM after 90 mins by microfluidic peptide phosphorylation assay
# [15] = target: RAF proto-oncogene serine/threonine-protein kinase (Homo sapiens) (UniProt P04049); experiment: Inhibition of human truncated c-Raf expressed in baculovirus assessed as substrate phosphorylation using fluorescence-labelled peptides as substrate at 1000 uM after 90 mins by microfluidic peptide phosphorylation assay
# Chain of RAF proto-oncogene serine/threonine-protein kinase (Homo sapiens) (P04049 whole entry, the tested form may be a part): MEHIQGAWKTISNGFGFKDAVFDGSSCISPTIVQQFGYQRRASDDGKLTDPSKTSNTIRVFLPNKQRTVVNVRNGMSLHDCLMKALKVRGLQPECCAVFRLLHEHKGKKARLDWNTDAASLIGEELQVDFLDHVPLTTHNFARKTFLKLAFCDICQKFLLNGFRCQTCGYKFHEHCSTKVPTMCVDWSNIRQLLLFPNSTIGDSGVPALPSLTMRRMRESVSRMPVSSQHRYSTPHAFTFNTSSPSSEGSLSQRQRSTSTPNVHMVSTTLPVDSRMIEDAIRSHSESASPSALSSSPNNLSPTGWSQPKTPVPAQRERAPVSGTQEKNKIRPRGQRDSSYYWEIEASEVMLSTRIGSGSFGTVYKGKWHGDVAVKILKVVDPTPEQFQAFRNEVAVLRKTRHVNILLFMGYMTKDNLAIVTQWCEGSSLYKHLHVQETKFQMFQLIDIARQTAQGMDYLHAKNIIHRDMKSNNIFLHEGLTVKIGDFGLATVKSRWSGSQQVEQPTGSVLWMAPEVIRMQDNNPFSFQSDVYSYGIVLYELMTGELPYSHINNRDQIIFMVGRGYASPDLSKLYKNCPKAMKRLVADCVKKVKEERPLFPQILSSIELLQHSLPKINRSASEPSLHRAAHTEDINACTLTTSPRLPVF
compound,measurement,setting,value
Clc1ccc(C2(c3ccc(-c4ncnc5[nH]cnc45)cc3)CCNCC2)cc1,inhibition,[1],0%
c1nc(N2CCOCC2)c2nc[nH]c2n1,inhibition,[2],88.5%
NCC1CN(c2ncnc3[nH]c4cnccc4c23)CCO1 (stereo not given),inhibition,[3],31%
same,inhibition,[4],7.5%
same,inhibition,[5],95.5%
same,inhibition,[6],0%
NC1CCN(c2ncnc3[nH]ccc23)CC1,inhibition,[7],20.5%
C[C@H](CN(C)C)Oc1nc(Nc2cc3cccc(Cl)c3cn2)cnc1C#N,inhibition,[8],0%
same,inhibition,[9],1.5%
same,inhibition,[10],0%
COC(=O)c1cnc(Nc2cnc(C#N)cn2)cc1NCC1CCNCC1,inhibition,[11],7.5%
NC1(Cc2ccc(Cl)cc2)CCN(c2ncnc3[nH]ccc23)CC1,inhibition,[12],0%
NCC1CCN(c2ncnc3[nH]ccc23)CC1,inhibition,[13],86%
CNCc1ccc(-c2ncnc3[nH]cnc23)cc1,inhibition,[14],96%
c1cnc2[nH]ccc2c1,inhibition,[15],20%
